Test results as given in US7723564B2, “Compositions and methods for modulation of KSR1 and KSR2 interactions” (Board of Regents of the University of Nebraska, priority 2006, dated 2010).

Tests used:
[1] = tested on: AMPK-KSR1 interaction; assay: Coimmunoprecipitation of AMPK with KSR1; assay type: cell-based; conditions: AMPK expressed in cells with KSR1; FIG. 22
Text: (§1) FIG. 22. is a series of western blots showing that AMPK coimmunopreciptates with KSR1 and KSR2.
(§2) AMP activated protein kinase (AMPK) is a critical regulator of catabolism in cells, promoting the synthesis of ATP and inhibiting the anabolic effects of other hormones to promote […]. AMPK is an indirect target of the widely prescribed anti-diabetic drug metformin. […] When AMPK is expressed in cells with either KSR or KSR2, AMPK is found to precipitate with either protein. AMPK is not precipitated in the absence of KSR proteins.

[2] = tested on: AMPK-KSR2 interaction; assay: Coimmunoprecipitation of AMPK with KSR2; assay type: cell-based; conditions: AMPK expressed in cells with KSR2; FIG. 22
Text: as §1, §2

With `CC[C@H]1/C=C/C=C/C[C@@H](C)[C@H](O)[C@@](C)(O)C(=O)[C@@H](C)[C@H](O)[C@@H](C)C(=O)[C@@H](C)[C@H](O)[C@@H](C)/C=C/C(=O)O[C@@H]2[C@H](C)[C@H](CC1)O[C@]1(CC[C@H](C)[C@H](C[C@@H](C)O)O1)[C@H]2C` [oligomycin] the “Effect on interaction of AMPK with KSR1” value [1] was “does not alter” and the “Effect on interaction of AMPK with KSR2” value [2] was “does not alter”.
